{
  "source": "patent US9334524B2",
  "about": "“Methods for improving and managing nucleoside reverse-transcriptase inhibition based treatment” (priority 2011, dated 2016)",
  "key": {"[1]": {"system": "HIV-1 reverse transcriptase", "type": "cell-based", "conditions": "for inhibition of cell growth, then reverse transcription (OD @ 600 nm): Strain A# (dCK in genome, OAT1 plasmid), 100 μM, 72 hours, FIG. 1; for inhibition of HIV RT enabled by expression of OAT1: transformed yeast cell expressing OAT1"}, "[2]": {"system": "HIV-1 reverse transcriptase", "conditions": "Strain B## (dCK+, OAT1+ in genome), 100 μM, 72 hours, FIG. 2", "text": "S. cerevisiae strain B (Mat a, URA+, HIS−, LEU+) was transformed, using the standard Lithium Acetate protocol, with a previously linearized by StuI restriction enzyme p426GPDhdCK plasmid that contains the nucleic acid sequences coding for dCK and ura3, and where linearization occurred within the ura3 open reading frame. The new strain (Strain B#) where integration of dCK occurred at the ura3 locus has the following phenotype (Mat a, URA−, HIS−, LEU+, dCK+).\nStrain B# was genetically modified by standard methods through transformation with a PCR amplified DNA fragment. This nucleic acid fragment contains the nucleic acid sequence coding for OAT1 transporter flanked by 5′ and 3′ non-coding regions of the leu2 locus. The new modified strain where dCK and OAT1 are integrated in the yeast genome, Strain B## (Mat a, URA−, HIS−, LEU−, dCK+, OAT1+), was transformed with the plasmid pHART21 described in U.S. Pat. No. 5,714,313. HIV-1 RT activity in Strain B## was determined as described in U.S. Pat. No. 5,714,313 after 72 hours incubation in the presence of 100 μM of either AZT, ddC, ddI or d4T."}, "[3]": {"system": "HIV-1 reverse transcriptase", "type": "cell-based", "conditions": "for % Inhibition of HIV Reverse Transcriptase activity in yeast cells: Strain A# (dCK+, CNT3+), 200 μM, 72 hours incubation; for inhibition of HIV RT enabled by expression of CNT3: transformed yeast cell expressing CNT3"}, "[4]": {"system": "HIV-1 reverse transcriptase", "type": "cell-based", "conditions": "for % Inhibition of HIV Reverse Transcriptase activity in yeast cells: Strain A (no dCK, no transporter), 200 μM, 72 hours incubation; for inhibition of cell growth, then reverse transcription (OD @ 600 nm): Strain A (not carrying dCK and OAT1), 100 μM, 72 hours, FIG. 1"}, "[5]": {"system": "HIV-1 reverse transcriptase", "conditions": "Strain A#§ (dCK+, CNT2+), 200 μM, 72 hours", "experimental": "HIV RT activity was determined in both strains as described in U.S. Pat. No. 5,714,313 as follows. Both HIV1 RT expressing strains were grown in SD-ura+glucose to saturation. 1 DO of saturated culture (about 10^7 cells) was seeded in 1 ml SGal-ura and grew for 6 hrs. Glucose was then added to stop RT activation. After 12 hours, induced cells were seeded at 0.2 DO/ml in SD-His media and incubated for 72 hours. Incubations were performed at 30° C. with shaking Inhibition of HIV-1 RT activity was determined by measuring the inhibition of growth in the presence 200 μM concentration of ABC (Abacavir) or TFV (Tenofovir) inhibitors, as shown in Table II."}, "[6]": {"system": "HIV-1 reverse transcriptase", "conditions": "Strain A§§ (NT5C+, CNT2+), 200 μM, 72 hours", "experimental": "HIV RT activity was determined in both strains as described in U.S. Pat. No. 5,714,313 as follows. Both HIV1 RT expressing strains were grown in SD-ura+glucose to saturation. 1 DO of saturated culture (about 10^7 cells) was seeded in 1 ml SGal-ura and grew for 6 hrs. Glucose was then added to stop RT activation. After 12 hours, induced cells were seeded at 0.2 DO/ml in SD-His media and incubated for 72 hours."}},
  "note": "Where two headings read alike, the source gives them in different places.",
  "data": [
    {"compound": "Cc1cn([C@H]2C[C@H](N=[N+]=[N-])[C@@H](CO)O2)c(=O)[nH]c1=O", "note": "[AZT, Zidovudine]", "values": [
      {"measurement": "inhibition of cell growth, then reverse transcription (OD @ 600 nm)", "setting": "[1]", "value": "inhibits cell growth"},
      {"measurement": "inhibition of HIV RT enabled by expression of OAT1", "setting": "[1]", "value": "good inhibition"},
      {"measurement": "inhibition of cell growth (% inhibition), then reverse transcription, absorbance at 600 nm", "setting": "[2]", "value": "inhibits cell growth"},
      {"measurement": "% Inhibition of HIV Reverse Transcriptase activity in yeast cells", "setting": "[3]", "value": 31, "unit": "%"},
      {"measurement": "inhibition of HIV RT enabled by expression of CNT3", "setting": "[3]", "value": "good inhibition"},
      {"measurement": "% Inhibition of HIV Reverse Transcriptase activity in yeast cells", "setting": "[4]", "value": 0, "unit": "%"},
      {"measurement": "inhibition of cell growth, then reverse transcription (OD @ 600 nm)", "setting": "[4]", "value": "can not inhibit cell growth"}
    ]},
    {"compound": "O=c1[nH]cnc2c1ncn2[C@H]1CC[C@@H](CO)O1", "note": "[ddI, Didanosine]", "values": [
      {"measurement": "inhibition of cell growth, then reverse transcription (OD @ 600 nm)", "setting": "[1]", "value": "inhibits cell growth"},
      {"measurement": "inhibition of HIV RT enabled by expression of OAT1", "setting": "[1]", "value": "good inhibition"},
      {"measurement": "inhibition of cell growth (% inhibition), then reverse transcription, absorbance at 600 nm", "setting": "[2]", "value": "inhibits cell growth"},
      {"measurement": "inhibition of cell growth, then reverse transcription (OD @ 600 nm)", "setting": "[4]", "value": "can not inhibit cell growth"}
    ]},
    {"compound": "Nc1nc(NC2CC2)c2ncn([C@H]3C=C[C@@H](CO)C3)c2n1", "note": "[ABC, Abacavir]", "values": [
      {"measurement": "% Inhibition of HIV-1 Reverse transcriptase in modified yeast cells", "setting": "[5]", "value": 87, "unit": "%"},
      {"measurement": "% Inhibition of HIV-1 Reverse transcriptase in modified yeast cells", "setting": "[6]", "value": 0, "unit": "%"}
    ]},
    {"compound": "Nc1ccn([C@H]2CC[C@@H](CO)O2)c(=O)n1", "note": "[ddC, Zalcitabine]", "values": [
      {"measurement": "inhibition of cell growth, then reverse transcription (OD @ 600 nm)", "setting": "[1]", "value": "inhibits cell growth"},
      {"measurement": "inhibition of HIV RT enabled by expression of OAT1", "setting": "[1]", "value": "good inhibition"},
      {"measurement": "inhibition of cell growth (% inhibition), then reverse transcription, absorbance at 600 nm", "setting": "[2]", "value": "inhibits cell growth"},
      {"measurement": "inhibition of cell growth, then reverse transcription (OD @ 600 nm)", "setting": "[4]", "value": "can not inhibit cell growth"}
    ]},
    {"compound": "Cc1cn([C@H]2C=C[C@@H](CO)O2)c(=O)[nH]c1=O", "note": "[d4T, Stavudine]", "values": [
      {"measurement": "inhibition of cell growth, then reverse transcription (OD @ 600 nm)", "setting": "[1]", "value": "inhibits cell growth"},
      {"measurement": "inhibition of HIV RT enabled by expression of OAT1", "setting": "[1]", "value": "good inhibition"},
      {"measurement": "inhibition of cell growth (% inhibition), then reverse transcription, absorbance at 600 nm", "setting": "[2]", "value": "inhibits cell growth"},
      {"measurement": "% Inhibition of HIV Reverse Transcriptase activity in yeast cells", "setting": "[3]", "value": 56, "unit": "%"},
      {"measurement": "inhibition of HIV RT enabled by expression of CNT3", "setting": "[3]", "value": "good inhibition"},
      {"measurement": "% Inhibition of HIV Reverse Transcriptase activity in yeast cells", "setting": "[4]", "value": 0, "unit": "%"},
      {"measurement": "inhibition of cell growth, then reverse transcription (OD @ 600 nm)", "setting": "[4]", "value": "can not inhibit cell growth"}
    ]},
    {"compound": "CC(C)OC(=O)OCOP(=O)(CO[C@H](C)Cn1cnc2c(N)ncnc21)OCOC(=O)OC(C)C", "note": "[TFV, Tenofovir]", "values": [
      {"measurement": "% Inhibition of HIV-1 Reverse transcriptase in modified yeast cells", "setting": "[5]", "value": 96, "unit": "%"},
      {"measurement": "% Inhibition of HIV-1 Reverse transcriptase in modified yeast cells", "setting": "[6]", "value": 0, "unit": "%"}
    ]}
  ]
}
